Legend:
[1] = system: patient with corticobasal syndrome; assay: Case study, corticobasal syndrome; type: in vivo, human
Procedure: Gait analysis was performed before treatment commenced.

[2] = system: patients with multiple system atrophy Parkinson type (MSA-P); assay: Case studies, multiple system atrophy Parkinson type; type: in vivo, human
patients with vertigo = conditions: clinical results reported by various authors; cited from earlier work
NPC patients = assay: Clinical severity score (CSS) and annual severity increment score (ASIS) in ten NPC patients; type: in vivo, human; conditions: 4.5 g/day
Text: An NPC patient's severity may be quantified by assigning a clinical severity score (CSS), which assesses various parameters of the disease and gives each parameter a score out of 5 (higher score=greater severity). See Yanjanin et al., “Linear Clinical Progression, Independent of Age of Onset, in Niemann-Pick Disease, Type C,” Am J Med Genet Part B 153B:132-140. In an untreated patient, one can typically predict how the CSS will change over time in an individual, as disease progression appears to be linear. For example, if Patient A moves from a CSS of 8 to a CSS of 12 between month 0 and month 12, it can be predicted that by month 36, the patient will have a CSS of 20. The annual severity increment score (ASIS) quantities the annual rate of change in the CSS, calculated by dividing the CSS of a patient by the patient's age. […]
Ten NPC patients were administered acetyl-leucine at 4.5 g/day over long durations. A CSS was determined at baseline, and at various time points, for eye movement, ambulation, speech, swallow, fine motor skills, cognition, memory, and seizures. An overall CSS was calculated at baseline and at each such time point by adding the individual CSS values for each parameter (eye movement, ambulation, etc.).
The ASIS at baseline and each time point was calculated using each patient's CSS and age at the time of assessment. […]

[3] = system: person with postural imbalance and gait disorder; assay: Case study Example 24; type: in vivo, human
Procedure: The patient was treated with Tanganil® 500 mg in 3 separate doses throughout the day—1 g upon waking, 1 g prior to lunch and 1 g prior to the evening meal for one week, followed by 2 g upon waking, 1.5 g prior to lunch and 1.5 g prior to the evening meal.

[4] = system: patients with multiple system atrophy Parkinson type (MSA-P); assay: Case studies, multiple system atrophy Parkinson type; type: in vivo, human; conditions: MSA-P Patient 3, after one month
Text: Medication was stopped. […] The patient evaluated after one month on acetyl-DL-leucine. […] Episodes of mental confusion completely disappeared. The patient's cognitive structure seemed much clearer and straighter. […] The patient's spouse supported continuing the medication.

[5] = system: patients with ataxia with oculomotor apraxia type 4; assay: Case study, ataxia with oculomotor apraxia type 4; type: in vivo, human; conditions: AOA4 youngest sibling
Text: In this case study, four patients (male siblings) suffered from, and were later diagnosed with, ataxia with oculomotor apraxia type 4. The older three siblings […], at the time of disease onset. […] The older siblings began treatment with acetyl-leucine […], respectively, and have been on the treatment for approximately four years. No long-term clinical data is available for these three patients.
The youngest sibling was […] at the time of onset. […] No long-term clinical data is available for the youngest sibling.

[6] = system: Mucopolysaccharidosis Type IIIB (MPS IIIB) patient fibroblasts; assay: Lysosomal volume via LysoTracker; type: cell-based, human; conditions: 1 mM, 6 days
wild-type (Npc1+/+) mice = assay: Weight data; type: in vivo, mouse; conditions: 0.1 g/kg from weaning
Text: (§1) Separate groups of Npc1^−/− and Npc1^+/+ mice were left untreated, as controls. Animals were weighed twice a week. Weights were averaged (mean) across all mice in each group and compared.

Npc1−/− mice = assay: Weight data; type: in vivo, mouse; conditions: 0.1 g/kg from weaning
Text: as §1

[7] = system: patients with progressive supranuclear palsy; assay: Case studies, progressive supranuclear palsy; type: in vivo, human
[8] = system: AB variant of Tay-Sachs disease patient fibroblasts; assay: Glycosphingolipid (GSL) levels via HPLC; type: cell-based, human; conditions: 1 mM for 6 days
[9] = MSA-P Patient 2, after one month of treatment

CC(=O)NC(CC(C)C)C(=O)O (racemic) [acetyl-DL-leucine]
Frequency of falls ([1]; after 20 days): significant reduction in the frequency of falls | Gait analysis parameters (summary) ([1]; after 20 days): objective improvement in gait analysis parameters | Dizziness symptoms ([1]; after 20 days, 3 g then 5 g per day): improvement of dizziness symptoms | Dizziness after suspension ([1]; two days after suspension of treatment): increase of dizziness symptoms | Symptoms after stopping medication ([2]; MSA-P Patient 1, 6 weeks later): did not report deterioration of symptoms | Gait, falls, hypokinetic rigid-syndrome (patient report) ([2]; MSA-P Patient 1, after 3 weeks): no significant improvement of gait, reduction of falls or improved hypokinetic rigid-syndrome | Balance (clinical examination) [2, 9]: improved balancing on an imaginary tightrope | Dizziness (patient report) [2, 9]: subjective improvement of dizziness | Symptomatology (patient report) ([2]; MSA-P Patient 2, after one month without medication): stable symptomatology | Symptomatology (patient report) ([2]; MSA-P Patient 2, after two months without medication): worsening of general symptomatology | improvement in vertigo symptomology (share of cases) (patients with vertigo): more than 95% | Change in ASIS during treatment relative to baseline (NPC patients): all ten patients showed a reduction in ASIS | Change in overall CSS over the course of the experiment (NPC patients): none of the ten patients showed an overall increase in CSS | Tolerability ([3]; 3 g/day one week then 5 g/day): well tolerated | Dizziness, imbalance, gait (feedback by spouse) ([3]; 22 days after beginning treatment): significant reduction of dizziness and imbalance, and significant improvement of gait | Cognitive function (reported by wife) [4]: significant improvement of cognitive function | Gait function [4]: no improvement of gait function | Fine motor skills and speech (reported by mother) [5]: improved fine motor skills and improved speech at each age compared to their older siblings | LysoTracker fluorescence vs untreated disease fibroblasts [6]: statistically significant reduction in LysoTracker fluorescence toward control level | Effect on weight gain (wild-type (Npc1+/+) mice): no significant effect | Delay of weight loss symptoms compared to the untreated group (Npc1−/− mice): two | Symptoms after stopping medication ([7]; PSP Patient 2, about two months later): no deterioration of symptoms after stopping medication | Symptoms after stopping medication ([7]; PSP Patient 3, about two months later): no deterioration of symptoms after stopping medication | GSL levels [8]: trend towards decreased GSL levels
